Source: patent US20110263520A1, “COMPOSITION FOR USE IN CONTROLLING HARMFUL ORGANISMS THAT CONTAINS 16-KETO ASPERGILLIMIDE” (priority 2008, published 2011)
Like-named read-outs stand apart in the source and are kept apart here.

Key:
Laodelphax striatellus [1] = assay: Laodelphax striatellus soil drenching application test (Test Example 1); settings: for Death rate (%): soil drenching, 3 days after release
Procedure: Test solutions adjusted to a predetermined concentration (10% aqueous acetone solution) were applied to rice seedling in a pot by soil drenching. The rice seedling was allowed to stand for 3 days. Second instar larvae were released and was then allowed to stand in a humidistat chamber (light period 16 hr−dark period 8 hr) (25° C.).
Death rate (%)={number of dead larvae/(number of survived larvae+number of dead larvae)}×100
wherein A: 100−(death rate when application was performed only with 16-keto aspergillimide); and

[2] = tested on: Haemaphysalis longicornis; assay: Tickcidal effect against Haemaphysalis longicornis, dry film in glass vial (Test Example 5); type: in vivo; settings: for pest or weed control at 1.5 ppm: other agent 1.5 ppm alone (16-keto aspergillimide 0 ppm); for pest or weed control at 3 ppm: other agent 3 ppm alone (16-keto aspergillimide 0 ppm); for pest or weed control at 30 ppm: other agent 30 ppm alone (16-keto aspergillimide 0 ppm); for Death rate (%): Table 10; for Theoretical value (%) by Colby's formula: Table 12
Procedure: Acetone solutions (30 μl) adjusted to predetermined concentrations were placed in 4 mL-volume glass vials. The vials were placed on a shaker, and a dry film of the compound was prepared on the inner wall of the vials. The vials were dried for 24 hr or more. Larvae (10 or more heads) were released in the vials, and the vials were lidded. The vials were then left to stand in a humidistat chamber (25° C., humidity 85%, fully darkened conditions). […] The test was duplicated.
(§1) Colby's formula: Theoretical value (%)=100−(A×B)/100

[3] = tested on: Nilaparvata lugens which is low-sensitive to imidacloprid; assay: Foliage application test for Nilaparvata lugens, imidacloprid low-sensitive strain (Test Example 4); type: in vivo; settings: low-sensitive strain, 6 days after release
Procedure: (§2) Test solutions adjusted to a predetermined concentration (50% aqueous acetone solution) applied to rice seedlings in a pot for foliage application. […] The test was duplicated.
(§3) For comparison, a test was carried out in the same manner as described above, except that a Nilaparvata lugens strain which is highly sensitive to imidacloprid was used.
(§4) Regarding the origin of the test insect pests, Nilaparvata lugens which is low-sensitive to imidacloprid was an insect which had been collected outdoors in Kumamoto Prefecture, 2007, and Nilaparvata lugens which is sensitive to imidacloprid was an insect which had been collected in Kagoshima Prefecture and was then subjected to indoor successive raising.

[4] = tested on: Haemaphysalis longicornis; assay: Tickicidal effect against Haemaphysalis longicornis on body surface of mouse (Test Example 6); type: in vivo; settings: other agent 6 μg/2 cm^2 alone (16-keto aspergillimide 0 μg/2 cm^2)
Procedure: Skin hair on the back of mouse (ICR, male, 5 week olds) was clipped in a diameter of about 2 cm, and a 15-mL polystyrene conical tube cut to have a height of about 1.5 cm was bonded to the body surface of the mouse with an instant adhesive. Test solutions (20 μl) adjusted with ethanol were dropped on the body surface of mice within the bonded tube. After thorough drying, larvae (10 or more heads) were released within the tube, and the tube was lidded. […] The test was hexaplicated.
as §1

Laodelphax striatellus [5] = assay: Foliage application test for Laodelphax striatellus (Test Example 2); type: in vivo; settings: other insecticide 0.313 ppm alone (16-keto aspergillimide 0 ppm); for Death rate (%): foliage application, 3 days after release
Text: as §1

[6] = tested on: Nilaparvata lugens which is sensitive to imidacloprid; assay: Foliage application test for Nilaparvata lugens, imidacloprid-sensitive strain (Test Example 4, comparison); type: in vivo; settings: 6 days after release
Procedure: as §2, §3, §4

Laodelphax striatellus [7] = assay: Root dipping application test, Laodelphax striatellus (Reference Test Example 1); type: in vivo; settings: 0.5 μg/seedling, wheat seedlings, 3 days after release
Text: A test solution adjusted to a predetermined concentration (10% aqueous acetone solution) was applied to the root of wheat seedlings in water culture. […] The test was duplicated.
As is apparent from Table 15, the systemic insecticidal activity of 16-keto aspergillimide was much higher than that of a control compound, Asperparaline A.
The 16-keto aspergillimide and Asperparaline A used in this test were obtained according to methods described in The Journal of Antibiotics, 1997, 50(10), 840-846. This is true of the following test examples.

[8] = other insecticide 0.005 mg/seedling alone (16-keto aspergillimide 0 mg/seedling)
[9] = Haemaphysalis longicornis, 48 h, read-out: Death rate (%), Table 9, 2 days after release
[10] = treatment concentration 1.25 ppm
[11] = other insecticide 0.002 mg/seedling alone (16-keto aspergillimide 0 mg/seedling)

O=[N+]([O-])NC1=NCCN1Cc1ccc(Cl)nc1 [Imidacloprid, imidacloprid, reference compound]
Theoretical value (%) calculated by the Colby's formula (Laodelphax striatellus [1]; [8]): 5% | Death rate (%) (Laodelphax striatellus [1]; [8]): 5% | pest or weed control at 1.5 ppm [2, 9]: 26% | pest or weed control at 3 ppm [2, 9]: 33% | Death rate (%) [3, 10]: 15% | Death rate (%) ([3]; treatment concentration 5 ppm): 55% | Death rate (%) ([3]; treatment concentration 20 ppm): 85% | Theoretical value (%) by Colby's formula [4]: 22% | Death rate (%) ([4]; mouse body surface, 3 days after release): 22% | Theoretical value (%) calculated by the Colby's formula (Laodelphax striatellus [5]): 5% | Death rate (%) (Laodelphax striatellus [5]): 5% | Death rate (%) [6, 10]: 100% | Death rate (%) ([6]; treatment concentration 5 ppm): 100% | Death rate (%) ([6]; treatment concentration 20 ppm): 100%

C[C@H]1CCN2C[C@@]34C[C@]5(CC(=O)N(C)C5=O)C(C)(C)[C@@H]3C[C@]12C(=O)N4C [Asperparaline A, reference compound]
Death rate (%) for each amount of test chemical compound (Laodelphax striatellus [7]): 0%

CN/C(=N/CC1CCOC1)N[N+](=O)[O-] (centres unmarked) [Dinotefuran, dinotefuran]
Theoretical value (%) calculated by the Colby's formula (Laodelphax striatellus [1]): 4% | Death rate (%) (Laodelphax striatellus [1]; [11]): 4% | pest or weed control at 30 ppm [2, 9]: 12% | pest or weed control at 50 ppm ([2]; Haemaphysalis longicornis, 48 h, read-out: Death rate (%), Table 9, other agent 50 ppm alone (16-keto aspergillimide 0 ppm), 2 days after release): 14%

CN1COCN(Cc2cnc(Cl)s2)/C1=N\[N+](=O)[O-] [Thiamethoxam, thiamethoxam]
pest or weed control at 30 ppm ([2]; Haemaphysalis longicornis, 48 h, read-out: Death rate (%), Table 10, 2 days after release): 21% | pest or weed control at 60 ppm ([2]; Haemaphysalis longicornis, 48 h, read-out: Death rate (%), Table 10, other agent 60 ppm alone (16-keto aspergillimide 0 ppm), 2 days after release): 26%

CCN(Cc1ccc(Cl)nc1)/C(=C/[N+](=O)[O-])NC [Nitenpyram, nitenpyram]
pest or weed control at 40 ppm ([2]; Haemaphysalis longicornis, 48 h, read-out: Death rate (%), Table 9, other agent 40 ppm alone (16-keto aspergillimide 0 ppm), 2 days after release): 12%

ivermectin
Death rate (%) ([2]; other agent 200 ppm alone (16-keto aspergillimide 0 ppm), 2 days after release): 0% | Death rate (%) ([2]; other agent 400 ppm alone (16-keto aspergillimide 0 ppm), 2 days after release): 0% | Theoretical value (%) by Colby's formula ([2]; other agent 200 ppm alone (16-keto aspergillimide 0 ppm)): 0% | Theoretical value (%) by Colby's formula ([2]; other agent 400 ppm alone (16-keto aspergillimide 0 ppm)): 0%

N#Cc1nn(-c2c(Cl)cc(C(F)(F)F)cc2Cl)c(N)c1[S+]([O-])C(F)(F)F (centres unmarked) [Fipronil, fipronil]
Theoretical value (%) calculated by the Colby's formula (Laodelphax striatellus [1]): 5% | Death rate (%) (Laodelphax striatellus [1]; [11]): 5% | Theoretical value (%) calculated by the Colby's formula (Laodelphax striatellus [5]): 21% | Death rate (%) (Laodelphax striatellus [5]): 21%

CN/C(=N\[N+](=O)[O-])NCc1cnc(Cl)s1 [Clothianidin, clothianidin]
pest or weed control at 5 ppm ([2]; Haemaphysalis longicornis, 48 h, read-out: Death rate (%), Table 10, other agent 5 ppm alone (16-keto aspergillimide 0 ppm), 2 days after release): 35% | pest or weed control at 10 ppm ([2]; Haemaphysalis longicornis, 48 h, read-out: Death rate (%), Table 10, other agent 10 ppm alone (16-keto aspergillimide 0 ppm), 2 days after release): 62% | Theoretical value (%) calculated by the Colby's formula (Laodelphax striatellus [5]): 4% | Death rate (%) (Laodelphax striatellus [5]): 4%

CC(c1ccc(C(F)(F)F)nc1)S(C)(=O)=NC#N (centres unmarked) [Sulfoxaflor, sulfoxaflor]
pest or weed control at 75 ppm ([2]; Haemaphysalis longicornis, 48 h, read-out: Death rate (%), Table 10, other agent 75 ppm alone (16-keto aspergillimide 0 ppm), 2 days after release): 48% | pest or weed control at 150 ppm ([2]; Haemaphysalis longicornis, 48 h, read-out: Death rate (%), Table 10, other agent 150 ppm alone (16-keto aspergillimide 0 ppm), 2 days after release): 60%

C/C(=N\C#N)N(C)Cc1ccc(Cl)nc1 [Acetamiprid, acetamiprid]
pest or weed control at 1.5 ppm [2, 9]: 24% | pest or weed control at 3 ppm [2, 9]: 55%
